Test results: patent US11464783B2, “Heterocyclic compounds” (Aligos Therapeutics, Inc., priority 2019, dated 2022)

These compounds were tested on HBV (assay: HBV-DNA Antiviral Assay Using HepG2.117 Cells). Conditions: Hepatitis B virus, HepG2.117, 96 h, intracellular HBV DNA by qPCR, day 4.
Format: cell-based
Protocol: The following assay procedure describes the HBV antiviral assay, using HepG2.117 cells, which carry a stably integrated genotype D HBV genome under the control of a Tet-off promoter, and intracellular HBV DNA quantification as endpoint. Cell viability is assessed in parallel by measuring the intracellular ATP content using ATPlite (Perkin Elmer).
On day 0, HepG2.117 cells (which are maintained in routine cell culture with doxycycline present in the medium at a final concentration of 1 μg/mL) were seeded in 96-well plates (white with clear bottom) at a density of 2.0×10^4 cells/well (0.1 mL/well) in medium without doxycycline to induce pgRNA transcription and subsequent formation of HBV particles. The cells were incubated at 37° C. and 5% CO2.
On day 1, medium was removed from each well, the test articles were diluted in culture medium without doxcycyline and 100 μL was added to cell culture wells (9 concentrations, 4-fold dilution). For each plate, 6 untreated (merely DMSO) wells were included. The final concentration of DMSO in the culture medium was 2%. Each plate was prepared in duplicate (one for HBV DNA extraction, one for ATPlite measurement). The cells were incubated at 37° C. and 5% CO2 for 3 days.
On day 4, cell viability was assessed using ATPlite and cell lysates were prepared for HBV DNA extraction and subsequent quantification by qPCR.
Medium was removed from each well and 100 μL of 0.33% NP-40 in H2O was added to each well. Plates were sealed, incubated at 4° C. for 5 mins, vortexed extensively and centrifuged briefly. Next, 35 μL of lysate was added to 65 μL QuickExtract DNA Extraction Solution (Epicentre) in a PCR plate for each well. PCR plate was incubated at 65° C. for 6 mins, 98° C. for 2 mins and finally cooled to 4° C. HBV DNA was then quantified by qPCR with HBV-specific primers and probes as specified in Table 2 using the Bio-Rad SSOAdvanced Universal Probes Supermix on a CFX96 machine (Bio-Rad). The PCR cycle program consisted of 95° C. for 3 mins, followed by 40 cycles at 95° C. for 10 sec and 60° C. for 30 sec.
A DNA standard was prepared by dilution of an IDT gBlock corresponding to the amplicon with concentrations ranging from 10^2 to 10^8 copies/input (i.e. per 4 μL) and used to generate a standard curve by plotting Cq values vs. HBV DNA standard concentration. The quantity of HBV DNA in each sample was determined by interpolating from the standard curve.
Cell viability was calculated as follows: % Cell viability=(luminescence value of test sample)/(average luminescence value of 2% DMSO control)×100%. HBV DNA inhibition was calculated as follows: 100−(HBV DNA copy number of test sample)/(average HBV DNA copy number of 2% DMSO control)×100%. No normalization to entecavir was required due to the excellent dynamic window of this assay. The CC50, EC so and EC90 values were determined by dose-response curves fitted by GraphPad Prism using “log (agonist) vs. response—Variable slope”.
In the case of `CC(C)NC(=O)C1CN(C(=O)c2ccc(Br)c(Cl)c2)CCS1(=O)=O` (stereo not drawn) [Compound 1, 4-(4-bromo-3-chlorobenzoyl)-N-isopropylthiomorpholine-2-carboxamide 1,1-dioxide], the EC50 is reported as 500 to 5000 nM. `O=C(Nc1ccccc1)C1CN(C(=O)c2ccc(Br)c(Cl)c2)CCS1(=O)=O` (stereo not drawn) [Compound 2, 4-(4-bromo-3-chlorobenzoyl)-N-phenylthiomorpholine-2-carboxamide 1,1-dioxide] showed an EC50 of 500 to 5000 nM. `O=C(NCc1ccccc1)C1CN(C(=O)c2ccc(Br)c(Cl)c2)CCS1(=O)=O` (stereo not drawn) [Compound 3, N-benzyl-4-(4-bromo-3-chlorobenzoyl)thiomorpholine-2-carboxamide 1,1-dioxide] gave an EC50 of 100 to 500 nM. `O=C(NCCc1ccccc1)C1CN(C(=O)c2ccc(Br)c(Cl)c2)CCS1(=O)=O` (stereo not drawn) [Compound 4, 4-(4-bromo-3-chlorobenzoyl)-N-phenethylthiomorpholine-2-carboxamide 1,1-dioxide] showed an EC50 of 500 to 5000 nM. With `O=C(c1ccc(Cl)cc1F)N1CCS(=O)(=O)C(c2cccs2)C1` (stereo not drawn) [Compound 10b, (4-chloro-2-fluoro-phenyl)-[1,1-dioxo-2-(2-thienyl)-1,4-thiazinan-4-yl]methanone] the EC50 was 500 to 5000 nM. `O=C(c1cc(F)cc(Cl)c1)N1CCS(=O)(=O)C(c2cccs2)C1` (stereo not drawn) [Compound 13a, (3-chloro-5-fluoro-phenyl)-[1,1-dioxo-2-(2-thienyl)-1,4-thiazinan-4-yl]methanone] gave an EC50 of 500 to 5000 nM. In the case of `Cn1cnc(-c2ccc(C3CN(C(=O)Nc4ccc(F)c(Cl)c4)CCS3(=O)=O)s2)c1` (stereo not drawn) [Compound 15a, N-(3-chloro-4-fluoro-phenyl)-2-[5-(1-methylimidazol-4-yl)-2-thienyl]-1,1-dioxo-1,4-thiazinane-4-carboxamide], the EC50 is reported as 500 to 5000 nM.

Same assay, conditions: intracellular HBV DNA by qPCR, day 4
`CC1(c2ncc(Cc3ccccc3)s2)CN(C(=O)c2ccc(Br)c(Cl)c2)CCS1(=O)=O` (racemic) [Compound 36a, (4-bromo-3-chloro-phenyl)-[rac-(2S)-2-(5-benzylthiazol-2-yl)-2-methyl-1,1-dioxo-1,4-thiazinan-4-yl]methanone] gave an EC50 of 500 to 5000 nM. Work on `CC1(c2ncc(Cc3ccccc3)s2)CN(C(=O)c2ccc(Br)c(Cl)c2)CCS1(=O)=O` (racemic) [Compound 36b, (4-bromo-3-chloro-phenyl)-[rac-(2R)-2-(5-benzylthiazol-2-yl)-2-methyl-1,1-dioxo-1,4-thiazinan-4-yl]methanone] yielded an EC50 of 100 to 500 nM. Work on `C[C@@H](c1cnc([C@@]2(F)CN(C(=O)c3ccc(Br)c(Cl)c3)CCS2(=O)=O)s1)c1ccccc1F` (racemic) [Compound 42a, (rac-2R)-4-(4-bromo-3-chlorobenzoyl)-2-fluoro-2-[5-[(rac-1R)-1-(2-fluorophenyl)ethyl]-1,3-thiazol-2-yl]-1λ^6-thiomorpholine-1,1-dione] yielded an EC50 of no more than 100 nM. Work on `C[C@H](c1cnc(C2(F)CN(C(=O)c3ccc(Br)c(Cl)c3)CCS2(=O)=O)s1)c1ccccc1F` (mixture of isomers) [Compound 42b, (rac-2R)-4-(4-bromo-3-chlorobenzoyl)-2-fluoro-2-[5-[(rac-1S)-1-(2-fluorophenyl)ethyl]-1,3-thiazol-2-yl]-1λ^6-thiomorpholine-1,1-dione] yielded an EC50 of no more than 100 nM. In the case of `C[C@@H](c1cnc(C2(F)CN(C(=O)c3ccc(Br)c(Cl)c3)CCS2(=O)=O)s1)c1ccccc1F` (mixture of isomers) [Compound 42c, (rac-2S)-4-(4-bromo-3-chlorobenzoyl)-2-fluoro-2-[5-[(rac-1R)-1-(2-fluorophenyl)ethyl]-1,3-thiazol-2-yl]-1λ^6-thiomorpholine-1,1-dione], the EC50 is reported as greater than 5000 nM. `C[C@H](c1cnc(C2(F)CN(C(=O)c3ccc(Br)c(Cl)c3)CCS2(=O)=O)s1)c1ccccc1F` (mixture of isomers) [Compound 42d, (rac-2S)-4-(4-bromo-3-chlorobenzoyl)-2-fluoro-2-[5-[(rac-1S)-1-(2-fluorophenyl)ethyl]-1,3-thiazol-2-yl]-1λ^6-thiomorpholine-1,1-dione] gave an EC50 of 500 to 5000 nM. Work on `O=C(c1ccc(Br)c(Cl)c1)N1CCS(=O)(=O)C(F)(c2ncc(Cc3ccccc3-c3ncccn3)s2)C1` (racemic) [Compound 44a, (rac-2R)-4-(4-bromo-3-chlorobenzoyl)-2-fluoro-2-(5-[[2-(pyrimidin-2-yl)phenyl]methyl]-1,3-thiazol-2-yl)-1λ^6-thiomorpholine-1,1-dione] yielded an EC50 of no more than 100 nM. For `O=C(c1ccc(Br)c(Cl)c1)N1CCS(=O)(=O)C(F)(c2ncc(Cc3ccccc3-c3ncccn3)s2)C1` (racemic) [Compound 44b, (rac-2S)-4-(4-bromo-3-chlorobenzoyl)-2-fluoro-2-(5-[[2-(pyrimidin-2-yl)phenyl]methyl]-1,3-thiazol-2-yl)-1λ^6-thiomorpholine-1,1-dione], the EC50 was 500 to 5000 nM. With `O=C(c1ccc(Cl)c(F)c1)N1CCS(=O)(=O)C(c2cccs2)C1` (single isomer, unassigned) [Compound 7a, (4-chloro-3-fluoro-phenyl)-[1,1-dioxo-2-(2-thienyl)-1,4-thiazinan-4-yl]methanone] the EC50 was 100 to 500 nM. `O=C(c1ccc(Cl)c(F)c1)N1CCS(=O)(=O)C(c2cccs2)C1` (single isomer, unassigned) [Compound 7b, (4-chloro-3-fluoro-phenyl)-[1,1-dioxo-2-(2-thienyl)-1,4-thiazinan-4-yl]methanone] was tested, and the EC50 was 500 to 5000 nM. `Cc1cc(Cl)ccc1C(=O)N1CCS(=O)(=O)C(c2cccs2)C1` (single isomer, unassigned) [Compound 12a, (4-chloro-2-methyl-phenyl)-[1,1-dioxo-2-(2-thienyl)-1,4-thiazinan-4-yl]methanone] gave an EC50 greater than 5000 nM. With `Cc1cc(Cl)ccc1C(=O)N1CCS(=O)(=O)C(c2cccs2)C1` (single isomer, unassigned) [Compound 12b, (4-chloro-2-methyl-phenyl)-[1,1-dioxo-2-(2-thienyl)-1,4-thiazinan-4-yl]methanone] the EC50 was 500 to 5000 nM. Compound `O=C(Nc1ccc(F)c(Cl)c1)N1CCS(=O)(=O)C(c2ccccc2)C1` (single isomer, unassigned) [Compound 18a, N-(3-chloro-4-fluoro-phenyl)-1, l-dioxo-2-phenyl-1,4-thiazinane-4-carboxamide] has an EC50 of 500 to 5000 nM. `O=C(Nc1ccc(F)c(Cl)c1)N1CCS(=O)(=O)C(c2ccccc2)C1` (single isomer, unassigned) [Compound 18b, N-(3-chloro-4-fluoro-phenyl)-1, l-dioxo-2-phenyl-1,4-thiazinane-4-carboxamide] showed an EC50 greater than 5000 nM. Compound `O=C(c1ccc(Br)c(Cl)c1)N1CCS(=O)(=O)C(c2ccccc2)C1` (single isomer, unassigned) [Compound 19a, (4-bromo-3-chloro-phenyl)-(1,1-dioxo-2-phenyl-1,4-thiazinan-4-yl)methanone] has an EC50 of 100 to 500 nM. In the case of `O=C(c1ccc(Br)c(Cl)c1)N1CCS(=O)(=O)C(c2ccccc2)C1` (single isomer, unassigned) [Compound 19b, (4-bromo-3-chloro-phenyl)-(1,1-dioxo-2-phenyl-1,4-thiazinan-4-yl)methanone], the EC50 is reported as 500 to 5000 nM. Work on `C[C@@H]1CS(=O)(=O)[C@](F)(c2ncc(Cc3ccccc3)s2)CN1C(=O)c1ccc(Br)c(Cl)c1` (stereo in doubt) [Compound 47a, (4-bromo-3-chloro-phenyl)-[(rac-2S,5R)-2-(5-benzylthiazol-2-yl)-2-fluoro-5-methyl-1,1-dioxo-1,4-thiazinan-4-yl]methanone] yielded an EC50 greater than 5000 nM. `C[C@@H]1CS(=O)(=O)[C@@](F)(c2ncc(Cc3ccccc3)s2)CN1C(=O)c1ccc(Br)c(Cl)c1` (stereo in doubt) [Compound 47b, (4-bromo-3-chloro-phenyl)-[(rac-2R,5R)-2-(5-benzylthiazol-2-yl)-2-fluoro-5-methyl-1,1-dioxo-1,4-thiazinan-4-yl]methanone] showed an EC50 of no more than 100 nM. In the case of `C[C@H]1CS(=O)(=O)[C@](F)(c2ncc(Cc3ccccc3)s2)CN1C(=O)c1ccc(Br)c(Cl)c1` (stereo in doubt) [Compound 48a, (4-bromo-3-chloro-phenyl)-[(rac-2S,5S)-2-(5-benzylthiazol-2-yl)-2-fluoro-5-methyl-1,1-dioxo-1,4-thiazinan-4-yl]methanone], the EC50 is reported as 100 to 500 nM. In the case of `C[C@H]1CS(=O)(=O)[C@@](F)(c2ncc(Cc3ccccc3)s2)CN1C(=O)c1ccc(Br)c(Cl)c1` (stereo in doubt) [Compound 48b, (4-bromo-3-chloro-phenyl)-[(rac-2R,5S)-2-(5-benzylthiazol-2-yl)-2-fluoro-5-methyl-1,1-dioxo-1,4-thiazinan-4-yl]methanone], the EC50 is reported as 100 to 500 nM.
